# Reference: US12496306B2 (REMEDY PHARMACEUTICALS, INC., priority 2021, dated 2025)
# Test: Compounding experiments, bulk solution stability in Tris buffer
# Assay type: physicochemical
# Details: 1 mg/ml, at least 24 h, room temperature
# Description: This is because Tris buffers effectively in the range of pH 7-9 (i.e. ±1 pH unit from pKa of 8.1). Outside of this pH range, the bulk solution is no longer buffered even with the addition of Tris. To maintain bulk solution stability, it is necessary to increase the compounding pH above 9, which is outside of the buffering range of Tris.
compound,measurement,value
"COc1ccc(Cl)cc1C(=O)NCCc1ccc(S(=O)(=O)NC(=O)NC2CCCCC2)cc1 [glibenclamide, 5-chloro-N-(4-[N-(cyclohexylcarbamoyl)sulfamoyl]phenethyl)-2-methoxybenzamide]",minimum compounding pH required to maintain bulk solution stability,≥ 9.1
